Legend:
[1] = test system: VIOTR (Viola tricolor L., wild violet); test: Example IV postemergence foliar-applied mixtures, general weed control, greenhouse: VIOTR; type: in vivo; details: Compound A Benzyl Ester alone
Protocol: Seeds or nutlets of the desired test plant species were planted in Sun Gro Metro-Mix® 360 planting mixture, which typically has a pH of 6.0 to 6.8 and an organic matter content of about 30 percent, in plastic pots with a surface area of 84.6 square centimeters (cm^2). […] The plants were grown for 7-31 days (d) in a greenhouse with an approximate 15 hour (h) photoperiod which was maintained at about 23-29° C. during the day and 22-28° C. during the night. Nutrients (Peters Excel® 15-5-15 5-Ca 2-Mg) and water were added on a regular basis and supplemental lighting was provided with overhead metal halide 1000-Watt lamps as necessary. The plants were employed for testing when they reached the first, second, or third true leaf stage.
(§1) Treatments consisted of the acid or the benzyl ester of 4-amino-3-chloro-5-fluoro-6-(4-chloro-2-fluoro-3-methoxy-phenyl)pyridine-2-carboxylic acid (Compound A), each formulated as an SC, and various herbicidal components alone and in combination. Forms of compound A were applied on an acid equivalent basis.
Other herbicidal components were applied on an acid equivalent or active ingredient basis and included the 5-enolpyruvylshikimate-3-phosphate synthase (EPSPS)-inhibiting herbicide, glyphosate dimethylamine salt, formulated as Durango DMA® and the glutamine synthase (GS)-inhibiting herbicide, glufosinate ammonium, formulated as Ignite® 280.
For treatments comprised of formulated compounds, measured amounts of compounds were placed individually in 25 mL glass vials and diluted in a volume of 1.25% (v/v) Agri-dex crop oil concentrated to obtain 12× stock solutions. […] Application solutions were prepared by adding an appropriate amount of each stock solution (typically 1 mL) and diluted to the appropriate final concentrations with the addition of 10 mL of an aqueous mixture of 1.25% (v/v) Agri-dex crop oil concentrate so that the final spray solutions contained 1.25% (v/v) Agri-dex crop oil concentrate.
All stock solutions and applications solutions were visually inspected for compound compatibility prior to application. Compound requirements are based upon a 12 mL application volume at a rate of 187 liters per hectare (L/ha). […]
The treated plants and control plants were placed in a greenhouse as described above and watered by sub-irrigation to prevent wash-off of the test compounds. After approximately 3 weeks, the condition of the test plants as compared with that of the untreated plants was determined visually and scored on a scale of 0 to 100 percent where 0 corresponds to no injury or growth inhibition and 100 corresponds to complete kill. […]

[2] = test system: SCPMA (Schoenoplectus maritimus (L.) Lye or Bolboschoenus maritimus (L.) Palla, sea clubrush); test: Example II in-water applied mixtures, transplanted paddy rice weeds, greenhouse: SCPMA; type: in vivo; details: Compound A Acid alone
Protocol: Weed seeds or nutlets of the desired test plant species were planted in puddled soil (mud) prepared by mixing a shredded, non-sterilized mineral soil (50.5 percent silt, 25.5 percent clay, and 24 percent sand, with a pH of about 7.6 and an organic matter content of about 2.9 percent) and water at a 1:1 volumetric ratio. The prepared mud was dispensed in 365 mL aliquots into 16-ounce (oz.) non-perforated plastic pots with a surface area of 86.59 square centimeters (cm^2) leaving a headspace of 3 centimeters (cm) in each pot. Mud was allowed to dry overnight prior to planting or transplanting. Rice seeds were planted in Sun Gro MetroMix® 306 planting mixture, which typically has a pH of 6.0 to 6.8 and an organic matter content of about 30 percent, in plastic plug trays. Seedlings at the second or third leaf stage of growth were transplanted into 840 mL of mud contained in 32-oz. non-perforated plastic pots with a surface area of 86.59 cm^2 4 days prior to herbicide application. The paddy was created by filling the headspace of the pots with 2.5 to 3 cm of water. […] The plants were grown for 4-22 days in a greenhouse with an approximate 14 hr photoperiod which was maintained at about 29′C during the day and 26° C. during the night. Nutrients were added as Osmocote® (19:6:12, N:P:K+minor nutrients) at 2 g per 16-oz. pot and 4 g per 32-oz. pot. Water was added on a regular basis to maintain the paddy flood, and supplemental lighting was provided with overhead metal halide 1000-Watt lamps as necessary. The plants were employed for testing when they reached the first through fourth true leaf stage.
as §1, with “esters” for “the benzyl ester”, “(compound A)” for “(Compound A),”, “SC (suspension concentrate)” for “SC,”
For formulated compounds, a measured amount was placed in an individual 100 or 200 mL glass vial and was dissolved in a volume of 1.25% (v/v) Agri-Dex® crop oil concentrate to obtain application solutions.
Applications were made by injecting with a pipetter appropriate amounts of the application solutions, individually and sequentially, into the aqueous layer of the paddy. Control plants were treated in the same manner with the solvent blank. Applications were made so that all treated plant material received the same concentrations of acetone and crop oil concentrate.
The treated plants and control plants were placed in a greenhouse as described above and water was added as needed to maintain a paddy flood. After approximately 3 weeks the condition of the test plants as compared with that of the untreated plants was determined visually and scored on a scale of 0 to 100 percent where 0 corresponds to no injury or growth inhibition and 100 corresponds to complete kill.
Colby's equation was used to determine the herbicidal effects expected from the mixtures (Colby, S. R. 1967. Calculation of the synergistic and antagonistic response of herbicide combinations. Weeds 15:20-22.).

Row | Structure (SMILES) | Visual Weed Control (%) - 18 DAA VIOTR Obs ([1]; 2 gae/ha) [%] | Visual Weed Control (%) - 18 DAA VIOTR Obs ([1]; 4 gae/ha) [%] | Visual Weed Control (%) - 21 DAA SCPMA Obs ([2]; 8.75 gae/ha) [%] | Visual Weed Control (%) - 21 DAA SCPMA Obs ([2]; 17.5 gae/ha) [%] | Visual Weed Control (%) - 21 DAA SCPMA Obs ([2]; 35 gae/ha) [%]
1 | COc1c(Cl)ccc(-c2nc(C(=O)OCc3ccccc3)c(Cl)c(N)c2F)c1F [Compound A Benzyl Ester] | 15 | 20 |  |  | 
2 | COc1c(Cl)ccc(-c2nc(C(=O)O)c(Cl)c(N)c2F)c1F [Compound A Acid, 4-amino-3-chloro-6-(4-chloro-2-fluoro-3-methoxyphenyl)-5-fluoropyridine-2-carboxylic acid] |  |  | 0 | 0 | 0

From patent publication US20140031227A1, “HERBICIDAL COMPOSITIONS COMPRISING 4-AMINO-3-CHLORO-5-FLUORO-6-(4-CHLORO-2-FLUORO-3-METHOXYPHENYL) PYRIDINE-2-CARBOXYLIC ACID OR A DERIVATIVE THEREOF AND GLYPHOSATE OR GLUFOSINATE” (DOW AGROSCIENCES LLC, priority 2012, published 2014)
